In patent publication US20240174723A1, “STAPLED ANTIMICROBIAL PEPTIDES (STAMPS) AND USES THEREOF” (Lytica Therapeutics, Inc., priority 2021, published 2024):
Converted amounts (≈) assume the structure as drawn. Positions of bridges follow the written chain, without caps; N, C: chain ends. Non-standard residues stand in square brackets, D forms with d. Residues, ends and D or L forms follow the SMILES beside them. S5 = C=CCCC[C@](C)(N)C(=O)O; Dap = NC[C@H](N)C(=O)O

Key:
[1] = tested on: E. coli; format: cell-based, Escherichia coli
Method: (§1) Antimicrobial Activity Assay: The following microbroth dilution protocol was adapted from CLSI to determine the minimum inhibitory concentration (MIC) of StAMPs. Briefly, Mueller-Hinton broth (MHB) or cation-adjusted Mueller-Hinton broth (MHB II) was prepared and autoclaved. Then, a colony of bacterial cells was picked and grown overnight in broth at 37° C. and then diluted and allowed to grow again for 3-4 hours. Serial dilutions of peptide stocks in water (10 μl) were prepared using clear round-bottom polypropylene 96-well plates. Then 90 μl of bacteria in broth was added to give a final inoculum of 5×10^5 CFU/ml. The plates were then covered with porous tape to reduce evaporation and incubated for 20-24 hours at 37° C. The MIC was the minimum peptide concentration at which no visible bacterial growth was observed.
(§2) Renal toxicity was measured after 90 minutes of incubation, while liver toxicity was measured after 48 hours of incubation with StAMPs. N/A=not tested. The following apply to all peptides (i.e., StAMPs) listed in Tables A-C: Crosslinks (X^1—X^2 and X^3—X^4): (alk); N-terminus: —NH2; C-terminus: amidated with —NH2; counterion: Cl^−. The following apply to all peptides (i.e., StAMPs) listed in Table D: Crosslinks (X^1—X^2 and X^3—X^4): (alk); N-terminus: —NH2; C-terminus: as shown in table; counterion: Cl^−.

[2] = tested on: K. pneumoniae; format: cell-based, Klebsiella pneumoniae
Method: as §1, §2

[3] = tested on: A. baumannii; format: cell-based, Acinetobacter baumannii
Method: as §1, §2

[4] = tested on: S. aureus; format: cell-based, Staphylococcus aureus
Method: as §1, §2

[5] = in vitro; format: cell-based; conditions: human, Inhibitory Concentration at 50% Cytotoxicity (IC50) Human Liver Cells (HepG2)
Method: Cell culture: RPTEC were maintained in MEM media supplemented with growth factors. HEPG2 cell line was maintained in Eagle's Minimum Essential Medium (EMEM) supplemented with fetal bovine serum to a final concentration of 10%.
48 hours cytotoxicity assay: Cells were plated in a 96-well format, and after 4 hour incubation to allow attachment, serial dilutions of StAMPs from a 5 mg/mL water stock, or vehicle, were then added to the cells in a final volume of 100 μl. After incubating at 37° C. for 48 hours, 100 μl of CellTiter-Glo® reagent was added to the cells, and the plates were incubated 10 minutes at room temperature. Luminescence was then measured on a microplate reader.
as §2

[6] = tested on: P. aeruginosa; format: cell-based, Pseudomonas aeruginosa
Method: as §1, §2
StAMP Micelle Formulation: DSPE-MPEG(2000) was suspended in buffered saline at 50-100 mg/mL overnight. StAMP stock solutions at 5-20 mg/mL in buffered saline were prepared and equal volumes of micelle and StAMP stock solution were mixed at the desired StAMP:Lipid ratio. Suspensions were allowed to sit for 5-10 minutes at room temperature before being used in in vitro and in vivo assays. […]

Row | Minimum Inhibitory Concentration (MIC) E. coli [1] [µg/mL] | Minimum Inhibitory Concentration (MIC) K. pneumoniae [2] [µg/mL] | Minimum Inhibitory Concentration (MIC) A. baumannii [3] [µg/mL] | Minimum Inhibitory Concentration (MIC) S. aureus [4] [µg/mL] | Minimum Inhibitory Concentration (MIC) P. aeruginosa [6] [µg/mL] | SMILES | IC50 at 48 hours [5] [µg/mL]
1 | 64 | >64 | 4 | >64 | 64 | CC(C)[C@@H]1NC(=O)[C@@](C)(NC(=O)[C@H](C)NC(=O)[C@H](CCCCN)NC(=O)[C@H](CO)NC(=O)[C@H](Cc2ccccc2)NC(=O)[C@H](CCCCN)NC(=O)[C@H](CCCCN)NC(=O)[C@H](CCCCN)NC(=O)[C@H](CCCCN)NC(=O)[C@H](CCCCN)NC(=O)[C@]2(C)CCCC=CCCC[C@](C)(NC(=O)CN)C(=O)NCC(=O)N[C@@H](CCCCN)C(=O)N[C@@H](Cc3ccccc3)C(=O)N2)CCCC=CCCC[C@@](C)(C(=O)N[C@@H](C)C(=O)N[C@@H](CCCCN)C(=O)N[C@@H](CCCCN)C(=O)NCC(=O)NCC(=O)N[C@@H](CCC(=O)O)C(N)=O)NC(=O)[C@H](CCC(=O)O)NC(=O)CNC1=O [compound 91] (H-G[S5]GKF[S5]KKKKKFSKA[S5]VGE[S5]AKKGGE-NH2; staple 2-6, 16-20) | > 200
2 | 2 | 8 | 2 | 64 | 4 | CC(C)[C@@H]1NC(=O)[C@@](C)(NC(=O)[C@H](C)NC(=O)[C@H](CCCCN)NC(=O)CNC(=O)[C@H](Cc2ccccc2)NC(=O)[C@H](CCCCN)NC(=O)[C@H](CCCCN)NC(=O)[C@H](CCCCN)NC(=O)[C@H](CCCCN)NC(=O)[C@H](CN)NC(=O)[C@]2(C)CCCC=CCCC[C@](C)(NC(=O)CN)C(=O)NCC(=O)N[C@@H](CCCCN)C(=O)N[C@@H](Cc3ccccc3)C(=O)N2)CCCC=CCCC[C@@](C)(C(=O)N[C@@H](C)C(=O)N[C@@H](CCCCN)C(=O)N[C@@H](CCCCN)C(N)=O)NC(=O)[C@H](CCC(=O)O)NC(=O)CNC1=O [compound 46] (H-G[S5]GKF[S5][Dap]KKKKFGKA[S5]VGE[S5]AKK-NH2; staple 2-6, 16-20) | 299 (≈ 119 µM)
3 | 2 | 4 | 2 | >64 | 4 | CC(C)[C@@H]1NC(=O)[C@@](C)(NC(=O)[C@H](C)NC(=O)[C@H](CCCCN)NC(=O)CNC(=O)[C@H](Cc2ccccc2)NC(=O)[C@H](CCCCN)NC(=O)[C@H](CCCCN)NC(=O)[C@H](CCCCN)NC(=O)[C@H](CCCCN)NC(=O)[C@H](CCCCN)NC(=O)[C@]2(C)CCCC=CCCC[C@](C)(NC(=O)CN)C(=O)NCC(=O)N[C@@H](CCCCN)C(=O)N[C@@H](Cc3ccccc3)C(=O)N2)CCCC=CCCC[C@@](C)(C(=O)N[C@@H](C)C(=O)N[C@@H](CN)C(=O)N[C@@H](CCCCN)C(N)=O)NC(=O)[C@H](CCC(=O)O)NC(=O)CNC1=O [compound 51] (H-G[S5]GKF[S5]KKKKKFGKA[S5]VGE[S5]A[Dap]K-NH2; staple 2-6, 16-20) | 
4 | 4 | 8 | 2 | >64 | 8 | CC(C)[C@@H]1NC(=O)[C@@](C)(NC(=O)[C@H](C)NC(=O)[C@H](CCCCN)NC(=O)CNC(=O)[C@H](Cc2ccccc2)NC(=O)[C@H](CN)NC(=O)[C@H](CCCCN)NC(=O)[C@H](CCCCN)NC(=O)[C@H](CCCCN)NC(=O)[C@H](CCCCN)NC(=O)[C@]2(C)CCCC=CCCC[C@](C)(NC(=O)CN)C(=O)NCC(=O)N[C@@H](CCCCN)C(=O)N[C@@H](Cc3ccccc3)C(=O)N2)CCCC=CCCC[C@@](C)(C(=O)N[C@@H](C)C(=O)N[C@@H](CCCCN)C(=O)N[C@@H](CCCCN)C(N)=O)NC(=O)[C@H](CCC(=O)O)NC(=O)CNC1=O [compound 49] (H-G[S5]GKF[S5]KKKK[Dap]FGKA[S5]VGE[S5]AKK-NH2; staple 2-6, 16-20) | 
5 | 4 | 8 | 2 | >64 | 8 | CC(C)[C@@H]1NC(=O)[C@@](C)(NC(=O)[C@H](C)NC(=O)[C@H](CN)NC(=O)CNC(=O)[C@H](Cc2ccccc2)NC(=O)[C@H](CCCCN)NC(=O)[C@H](CCCCN)NC(=O)[C@H](CCCCN)NC(=O)[C@H](CCCCN)NC(=O)[C@H](CCCCN)NC(=O)[C@]2(C)CCCC=CCCC[C@](C)(NC(=O)CN)C(=O)NCC(=O)N[C@@H](CCCCN)C(=O)N[C@@H](Cc3ccccc3)C(=O)N2)CCCC=CCCC[C@@](C)(C(=O)N[C@@H](C)C(=O)N[C@@H](CCCCN)C(=O)N[C@@H](CCCCN)C(N)=O)NC(=O)[C@H](CCC(=O)O)NC(=O)CNC1=O [compound 50] (H-G[S5]GKF[S5]KKKKKFG[Dap]A[S5]VGE[S5]AKK-NH2; staple 2-6, 16-20) | 
6 | 4 | 16 | 2 | >64 | 8 | CC(C)[C@@H]1NC(=O)[C@@](C)(NC(=O)[C@H](C)NC(=O)[C@H](CCCCN)NC(=O)CNC(=O)[C@H](Cc2ccccc2)NC(=O)[C@H](CCCCN)NC(=O)[C@H](CN)NC(=O)[C@H](CCCCN)NC(=O)[C@H](CCCCN)NC(=O)[C@H](CCCCN)NC(=O)[C@]2(C)CCCC=CCCC[C@](C)(NC(=O)CN)C(=O)NCC(=O)N[C@@H](CCCCN)C(=O)N[C@@H](Cc3ccccc3)C(=O)N2)CCCC=CCCC[C@@](C)(C(=O)N[C@@H](C)C(=O)N[C@@H](CCCCN)C(=O)N[C@@H](CCCCN)C(N)=O)NC(=O)[C@H](CCC(=O)O)NC(=O)CNC1=O [compound 48] (H-G[S5]GKF[S5]KKK[Dap]KFGKA[S5]VGE[S5]AKK-NH2; staple 2-6, 16-20) | 
7 | 2 | 6 | 2 | >64 | 4 | CC(C)[C@@H]1NC(=O)[C@@](C)(NC(=O)[C@H](C)NC(=O)[C@H](CCCCN)NC(=O)CNC(=O)[C@H](Cc2ccccc2)NC(=O)[C@H](CCCCN)NC(=O)[C@H](CCCCN)NC(=O)[C@H](CCCCN)NC(=O)[C@H](CN)NC(=O)[C@H](CCCCN)NC(=O)[C@]2(C)CCCC=CCCC[C@](C)(NC(=O)CN)C(=O)NCC(=O)N[C@@H](CCCCN)C(=O)N[C@@H](Cc3ccccc3)C(=O)N2)CCCC=CCCC[C@@](C)(C(=O)N[C@@H](C)C(=O)N[C@@H](CCCCN)C(=O)N[C@@H](CCCCN)C(N)=O)NC(=O)[C@H](CCC(=O)O)NC(=O)CNC1=O [compound 47] (H-G[S5]GKF[S5]K[Dap]KKKFGKA[S5]VGE[S5]AKK-NH2; staple 2-6, 16-20) | 
8 | 2 | 8 | 2 | >64 | 4 | CC(C)[C@@H]1NC(=O)[C@@](C)(NC(=O)[C@H](C)NC(=O)[C@H](CCCCN)NC(=O)CNC(=O)[C@H](Cc2ccccc2)NC(=O)[C@H](CCCCN)NC(=O)[C@H](CCCCN)NC(=O)[C@H](CCCCN)NC(=O)[C@H](CCCCN)NC(=O)[C@H](CCCCN)NC(=O)[C@]2(C)CCCC=CCCC[C@](C)(NC(=O)CN)C(=O)NCC(=O)N[C@@H](CCCCN)C(=O)N[C@@H](Cc3ccccc3)C(=O)N2)CCCC=CCCC[C@@](C)(C(=O)N[C@@H](C)C(=O)N[C@@H](CCCCN)C(=O)N[C@@H](CN)C(N)=O)NC(=O)[C@H](CCC(=O)O)NC(=O)CNC1=O [compound 52] (H-G[S5]GKF[S5]KKKKKFGKA[S5]VGE[S5]AK[Dap]-NH2; staple 2-6, 16-20) | 
